Experimental data reported in patent US5770410A, “Chiral synthesis with modified enzymes” (Genzyme Corporation, priority 1992, dated 1998).

Legend:
Assay type in all cases: biochemical
[1] = test system: Bacillus stearothermophilus lactate dehydrogenase loop exchange mutant BIG LOOP (loop SEQ ID No: 10); test: Steady-state kinetics, NADH-dependent reduction of 2-oxo acids (A340); conditions: 25° C., pH 6
Procedure: (§1) Each pair of overlapping oligonucleotides (20 μM of each) were subjected to 30 cycles of annealing and extension (94° C. for 1 minute, cool to 45° C. for 2 minutes, 45° C. for 1 minute, heat to 72° C. in 1 minute, 72° C. for 1 minute in 50 μl containing 0.05M KCl , 10 mM Tris pH 8.3, 1.5 mM MgCl2, 0.01% gelatin), 200 μM of each dNTP and 2.5 units TAQ DNA polymerase). The double-stranded DNA product was purified and then cut with SacII and XbaI before ligating it into the plasmid pLDHrs cut with the same enzymes. The ligated products were restricted with MluI to cleave wild-type plasmid pLDHrs.
(§2) Overnight cultures (11) were centrifuged and the packed cells were resuspended in 50 mM triethanolamine, pH 6.0. The cells were sonicated and the debris was removed by centrifugation. The protein in the supernatant was precipitated by the addition of 65% ammonium sulphate. The precipitate was spun down and resuspended in 50 mM triethanolamine, pH 6.0 and dialysed against the same buffer. After dialysis, NADH and FBP were added to the protein to final concentrations of 5 mM and 10 mM before loading onto an oxamate Sepharose column which had been pre-equilibrated with 50 mM triethanoloamine, pH 6.0, 3 mM NADH and 5 mM FBP. After washing off unbound protein with column buffer mutant LDH was eluted with 50 mM triethanolamine, pH 9.0, 0.3 M NaCl. The elutant was precipitated with 65% ammonium sulphate and then resuspended in and dialysed against 50 mM triethanolamine, pH 7.5. The protein was then loaded onto a Q-Sepharose Fast Flow column and eluted with a salt gradient. LDH eluted at a concentration of 0.25M NaCl. For the double glycine mutant enzyme, the first chromatography procedure with oxamate Sepharose was replaced by chromatography on Blue Sepharose -F3GA, otherwise the procedure was essentially the same. All proteins were judged to be greater than 98% pure from the intensity of Coomassie blue staining on an SDS Phast gel (Pharmacia). The yield of protein was usually 0.2 g/l of original broth.
(§3) Steady-state measurements were made by following the reduction in absorbance at 340 nm in the NADH/NAD^+ conversion. All assays were at 25° C. in the buffer Bis-Tris, pH 6, (20 mM), containing KC1 (50 mM) and when used fructose-1,6-bisphosphate at 5 mM. Protein concentration was determined from the absorbance at 280 nm using the value of 0.91 for 1 mg/ml protein in 1 cm path and an Mr of 33,000.
(§4) The specific substrates used in the evaluations are shown in the left column of Table 4. In Table 4, "235/6GG" denotes the mutant enzyme formed by substituting GlyGly for AlaAla at the 235-236 positions of the enzyme (Wilks et al., Biochemistry 1990, 29, 8587-8591), and "WTrs" denotes a mutant derived from the wild-type strain as shown in FIG. 1 of Wilks et al., Biochemistry 1992, 31, 7802-7806.

[2] = biological target: T1, Bacillus stearothermophilus lactate dehydrogenase loop exchange mutant SL2 (short loop) (Geobacillus stearothermophilus, UniProt P00344, A222G/A223G/C81T, form not given); test: as above; conditions: 25° C., pH 6
T1 construct: purified; +/- FBP
Procedure: as §1, §2, §3, §4

[3] = biological target: T2, Bacillus stearothermophilus lactate dehydrogenase loop exchange mutant SL1 (short loop) (Geobacillus stearothermophilus, UniProt P00344, A222G/A223G/C81T, form not given); test: as above; conditions: 25° C., pH 6
T2 construct: purified; +/- FBP
Procedure: as §1, §2, §3, §4

[4] = biological target: T3, Bacillus stearothermophilus lactate dehydrogenase, wild type, SEQ ID NO: 3 (Geobacillus stearothermophilus, UniProt P00344); test: as above; conditions: estimate, steady state kinetic measurements
T3 construct: made in house; host or cells: E. coli
Procedure: as §2, with “For the double glycine mutant enzyme, the first chromatography procedure with oxamate Sepharose was replaced by chromatography on Blue Sepharose -F3GA, otherwise the procedure was essentially the same. All proteins were judged to be greater than 98% pure from the intensity of Coomassie blue staining on an SDS Phast gel (Pharmacia). The yield of protein was usually 0.2 g/l of original broth.” left out
Steady-state measurements were made by following the reduction in absorbance at 340 nm in the NADH/NAD^+ conversion. […] Protein concentration was determined from the absorbance at 280 nm using the value of 0.91 for 1 mg/ml protein in 1 cm path and an Mr of 33,000. […]

[5] = biological target: T4, Bacillus stearothermophilus lactate dehydrogenase mutant MVS/GG (MetValSer for GlnLysPro at 102-105, GlyGly for AlaAla at 235-236) (Geobacillus stearothermophilus, UniProt P00344, A222G/A223G/K87V/P88S/Q86M); test: Steady state kinetic measurements, reduction of 4-methyl-2-oxo-3-pentenoic acid
T4 construct: made in house; host or cells: E. coli
Procedure: The mutation where alanines at 235,236 are replaced by glycines has been combined with three mutations in the mobile polypeptide loop (residues 98-112), namely […] by methionine, lysine 103 by valine and proline 105 by serine (MVS/GG).
as §3
Reduction of 4-methyl-2-oxo-3-pentenoic acid using MVS/GG (the mutant enzyme formed by substituting MetValSer for GlnLysPro at the 102-105 positions and GlyGly for AlaAla at the 235-236 positions): […]

T1 sequence (P00344 whole entry C81T/A222G/A223G, form open): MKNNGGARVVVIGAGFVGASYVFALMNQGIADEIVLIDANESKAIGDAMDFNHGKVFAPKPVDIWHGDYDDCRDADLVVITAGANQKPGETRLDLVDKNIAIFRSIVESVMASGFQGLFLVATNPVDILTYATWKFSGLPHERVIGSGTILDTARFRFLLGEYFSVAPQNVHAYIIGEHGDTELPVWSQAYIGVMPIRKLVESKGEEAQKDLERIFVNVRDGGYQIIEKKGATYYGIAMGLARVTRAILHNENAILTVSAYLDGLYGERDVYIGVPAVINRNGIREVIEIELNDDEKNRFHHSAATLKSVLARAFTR
T2 sequence (P00344 whole entry C81T/A222G/A223G, form open): as above
T3 sequence (P00344 whole entry): as the sequence (P00344 whole entry C81T/A222G/A223G, form open) above, with T81C, G222A, G223A counted along it
T4 sequence (P00344 whole entry Q86M/K87V/P88S/A222G/A223G): as the sequence (P00344 whole entry C81T/A222G/A223G, form open) above, with T81C, Q86M, K87V, P88S counted along it

SMILES: O=C(O)C(=O)CCc1ccccc1 [2-OXO-4-PHENYL BUTANOATE, 2-oxo-4-phenyl butanoic acid]
- Km ([1]; +FBP (5 mM)): 7 mM
- kcat ([1]; +FBP (5 mM)): 1.0 s⁻¹
- kcat /KM ([1]; +FBP (5 mM)): 143 M⁻¹ s⁻¹
- Km ([1]; -FBP): 12 mM
- kcat ([1]; -FBP): 0.1 s⁻¹
- Km ([2]; +FBP (5 mM)): 4 mM
- kcat ([2]; +FBP (5 mM)): 0.2 s⁻¹
- kcat /KM ([2]; +FBP (5 mM)): 50 M⁻¹ s⁻¹
- Km ([2]; -FBP): 4 mM
- kcat ([2]; -FBP): 0.01 s⁻¹
- kcat /KM ([2]; -FBP): 2.5 M⁻¹ s⁻¹
- Km ([3]; +FBP (5 mM)): 4 mM
- kcat ([3]; +FBP (5 mM)): 0.03 s⁻¹
- kcat /KM ([3]; +FBP (5 mM)): 7.5 M⁻¹ s⁻¹
- Km ([3]; -FBP): 4 mM
- kcat ([3]; -FBP): 0.002 s⁻¹

SMILES: CC(C)=CC(=O)C(=O)O [4-methyl-2-oxo-3-pentenoic acid]
- turnover [4]: 0.03 S^-1
- turnover [5]: 1.2 S^-1

SMILES: CCCCC(=O)C(=O)O [KETO CAPROATE, α-ketocaproate]
- Km ([2]; +FBP (5 mM)): 25 mM
- Km ([2]; -FBP): 60 mM
- Km ([3]; +FBP (5 mM)): 16 mM
- Km ([3]; -FBP): 20 mM

SMILES: CC(C)CC(=O)C(=O)O [KETOISO CAPROATE, α-ketoisocaproate]
- Km ([2]; +FBP (5 mM)): 25 mM
- Km ([2]; -FBP): 30 mM
- Km ([3]; +FBP (5 mM)): 20 mM
- Km ([3]; -FBP): 40 mM

SMILES: CC(=O)C(=O)O [PYRUVATE, pyruvate]
- Km ([2]; +FBP (5 mM)): 0.065 mM
- Km ([2]; -FBP): 0.5 mM
- Km ([3]; +FBP (5 mM)): 0.08 mM
